Results on one compound are retold here after US7662851B2, “Use of specific cyklolignans” (Axelar AB, priority 2001, dated 2010).

For assay [1], the system named is HL60/0 acute myeloid leukemia cells. In words: Leukemia cell viability, HL60/0. Conditions: Homo sapiens, HL-60; HL60, 72 h; read-out: IC50 for cell viability. Format: cell-based, human. As to the method: (§1) The human chronic myeloid leukemia K562/S and K562/Vcr30 lines and the acute myeloid leukemia cell lines HL60/0 and HL60/Nov were obtained from ATCC. The K562/S and […] are wild type (non-resistant) cells, whereas K562/Vcr30 and HL60/Nov are cytostatic-resistant sublines. All leukemia cell lines were cultured in RPMI 1640 medium supplemented with 10% fetal bovine serum and with 2 mM L-glutamine, benzylpenicillin (100 U/ml) and streptomycin (100 μg/ml). The cells were grown in tissue culture flasks maintained at 95% air/5% CO2 atmosphere at 37° C. in a humidified incubator. For the experiments cells were cultured in 60-mm plastic dishes or 96-well plastic plates.
(§2) Cell proliferation kit II (Roche Inc.) is based on colorimetric change of the yellow tetrazolium salt XTT in orange formazan dye by the respiratory chain of viable cells (Roehm, N W, et al., J Immunol Methods 142:257-265, 1991). Cells seeded at a concentration of 5000/well in 100 μl medium in a 96-well plate were treated with different drugs in the given concentration. After 24 or 48 h the cells were incubated, according to the manufacturer's protocol, with XTT labelling mixture. After 4 h the formazan dye is quantified using a scanning multiwell spectrophotometer with a 495-nm filter. The absorbance is directly correlated with the number of viable cells. The standard absorbance curve was drawn by means of untreated cells seeded at a concentration of from 1000 to 10 000 cells/well with an increasing rate of 1000 cells/well. All standards and experiments were performed in triplicates.
(§3) Cells of said cell lines were seeded in 96-well plates (25 000 cells/well, medium volume per well was 100 μl), in […] medium supplemented with fetal calf serum. After 24 h picropodophyllin and the derivatives alpha-apopicropodophyllin and beta-apopicropodo-phyllin were added at different concentrations and the cells were incubated for 72 h. Cell viability was then assayed (see above). […] The results are based on 3 different experiments.
(§4) The leukemia cell lines K562/S, […], HL60/0 and HL60/Nov were cultured in 96-well plates as described in Experiment 7. After 24 h, the cells were treated for 72 h with different concentrations of the anti-cancer agent vincristine, with and without co-incubation with 0.05 μM picropodophyllin. […] Cell viability was then assayed. IC50 values for each inhibitor and cell line are shown below (Table 8). The results are based on 3 different experiments.

The subject of assay [2] is K562/S chronic myeloid leukemia cells. In words: Leukemia cell viability, K562/S. Format: cell-based, human. Particulars: Homo sapiens, 72 h, read-out: IC50 for cell viability. As to the method: as §1, §2, §3, §4

SMILES strings stand for the structures.

On to `COc1cc([C@@H]2c3cc4c(cc3[C@H](O)[C@H]3COC(=O)[C@@H]23)OCO4)cc(OC)c1OC` [Picropodophyllin, picropodophyllin], for which the IC50 in assay [1] is 170 nM; in assay [2], 320 nM.
